Reference: US20020015943A1, “Assays, methods and means relating to the modulation of levels of nuclear beta-catenin” (priority 2000, published 2002)
“Also recorded” adds a separate entry of the source.

B1: HC: central fragment from human APC (codons 1379-2080) N-terminally tagged with GFP, expressed by transfection (protein, UniProt P25054 1379-2080, looked up, fragment)
chain: ETPLMFSRCTSVSSLDSFESRSIASSVQSEPCSGMVSGIISPSDLPDSPGQTMPPSRSKTPPPPPQTAQTKREVPKNKAPTAEKRESGPKQAAVNAAVQRVQVLPDADTLLHFATESTPDGFSCSSSLSALSLDEPFIQKDVELRIMPPVQENDNGNETESEQPKESNENQEKEAEKTIDSEKDLLDDSDDDDIEILEECIISAMPTKSSRKAKKPAQTASKLPPPVARKPSQLPVYKLLPSQNRLQPQKHVSFTPGDDMPRVYCVEGTPINFSTATSLSDLTIESPPNELAAGEGVRGGAQSGEFEKRDTIPTEGRSTDEAQGGKTSSVTIPELDDNKAEEGDILAECINSAMPKGKSHKPFRVKKIMDQVQQASASSSAPNKNQLDGKKKKPTSPVKPIPQNTEYRTRVRKNADSKNNLNAERVFSDNKDSKKQNLKNNSKVFNDKLPNNEDRVRGSFAFDSPHHYTPIEGTPYCFSRNDSLSSLDFDDDDVDLSREKAELRKAKENKESEAKVTSHTELTSNQQSANKTQAIAKQPINRGQPKPILQKQSTFPQSSKDIPDRGAATDEKLQNFAIENTPVCFSHNSSLSSLSDIDQENNNKENEPIKETEPPDSQGEPSKPQASGYAPKSFHVEDTPVCFSRNSSLSSLSIDSEDDLLQECISSAMPKKKKPSRLKGDNEKHSPRNMGGILGEDLTLDL
modifications: N-terminal GFP tag
notes: central fragment from human APC (codons 1379-2080) N-terminally tagged with GFP, expressed by transfection

Experiments:
[1] = system: nuclear export receptor CRM1; experiment: Subcellular distribution of GFP-tagged APC constructs in transfected COS cells with or without LMB; type: cell-based, monkey
Text: All constructs were inserted into pEGFP-C2 (Clontech), producing N-terminally tagged GFP fusions. Each construct (except HC and HCala, see below) also contains a triple hemagglutinin (HA) tag inserted between GFP and APC coding sequence. In coreNES, the following NES-encoding sequences were inserted between the HA tag and the ARDcore (first of a pair human, second Drosophila, bold NES residues were substituted to alanine in coreNESala; in coreNEScon, underlined conserved non-NES residues were substituted by alanine): 203, […], […]; 20R4, […], […]; 20R7, […]. coreNESmin from Drosophila 20R4 contains […] (bold residues substituted by alanine in the mutant version). […] For the complementation assays in SW480 cells, a central fragment from human APC (codons 1379-2080) was N-terminally tagged with GFP (HC, see above). The above described alanine substitutions of 20R-linked NESs were introduced into HC, and into GFP-E-APC, using the Quik-Change Site-Directed Mutagenesis Kit (Stratagene), HCala1 and HCala2 are partial mutants retaining one and two NESs, respectively (see text) All constructs were verified by sequencing.
Monkey COS cells were grown in DMEM medium (supplemented with 10% fetal calf serum), and transfected with FuGENE™ (Morin, P. J. et al. Science 275, 1787-1790 (1997)) Transfection Reagent (Roche). SW480 and HCT116 cells were grown in Leibovitz's L15 medium (with 10% fetal calf serum), and transfected with Lipofectamine (Life Technologies Inc.). 0.4 or […] DNA was used per transfection of COS or SW480 cells (in 35 mm culture wells), respectively. Transfected cells were harvested for analysis after 24-48 hours. For staining, cells were either fixed with chilled methanol for 10 min. at −20° C. or fixed with 4% paraformaldehyde (freshly prepared, in phosphate buffered saline) for 30 min. Cells were then permeabilised with 0.1% Triton X-100 and blocked with bovine serum albumin for 15 min. each, and subsequently incubated at room temperature with primary and secondary antibody for 60 and 30 min, respectively. COS cells were treated with LMB (50 ng/ml)) for 1-2 hours 24 hours after transfection, SW480 cells for 2 hours 48 hours after transfection.
(§1) Qualitative analysis was thus backed up by quantitative evaluation of 10-20 randomly chosen fields in which each individual healthy cell was scored. Ratios of nuclear to cytoplasmic fluorescence levels were determined.

[2] = molecular target: T1, nuclear export receptor CRM1 (Drosophila melanogaster, UniProt Q9TVM2); experiment: Endogenous E-APC localisation in LMB-treated permeabilised Drosophila embryos; type: cell-based; conditions: 80 ng/ml LMB 60 min
T1 construct: 0-6 hours old embryos were permeabilised in octane; from tissue; host or cells: octane-permeabilised Drosophila embryos, 0-6 hours old
T1 sequence (Q9TVM2 whole entry): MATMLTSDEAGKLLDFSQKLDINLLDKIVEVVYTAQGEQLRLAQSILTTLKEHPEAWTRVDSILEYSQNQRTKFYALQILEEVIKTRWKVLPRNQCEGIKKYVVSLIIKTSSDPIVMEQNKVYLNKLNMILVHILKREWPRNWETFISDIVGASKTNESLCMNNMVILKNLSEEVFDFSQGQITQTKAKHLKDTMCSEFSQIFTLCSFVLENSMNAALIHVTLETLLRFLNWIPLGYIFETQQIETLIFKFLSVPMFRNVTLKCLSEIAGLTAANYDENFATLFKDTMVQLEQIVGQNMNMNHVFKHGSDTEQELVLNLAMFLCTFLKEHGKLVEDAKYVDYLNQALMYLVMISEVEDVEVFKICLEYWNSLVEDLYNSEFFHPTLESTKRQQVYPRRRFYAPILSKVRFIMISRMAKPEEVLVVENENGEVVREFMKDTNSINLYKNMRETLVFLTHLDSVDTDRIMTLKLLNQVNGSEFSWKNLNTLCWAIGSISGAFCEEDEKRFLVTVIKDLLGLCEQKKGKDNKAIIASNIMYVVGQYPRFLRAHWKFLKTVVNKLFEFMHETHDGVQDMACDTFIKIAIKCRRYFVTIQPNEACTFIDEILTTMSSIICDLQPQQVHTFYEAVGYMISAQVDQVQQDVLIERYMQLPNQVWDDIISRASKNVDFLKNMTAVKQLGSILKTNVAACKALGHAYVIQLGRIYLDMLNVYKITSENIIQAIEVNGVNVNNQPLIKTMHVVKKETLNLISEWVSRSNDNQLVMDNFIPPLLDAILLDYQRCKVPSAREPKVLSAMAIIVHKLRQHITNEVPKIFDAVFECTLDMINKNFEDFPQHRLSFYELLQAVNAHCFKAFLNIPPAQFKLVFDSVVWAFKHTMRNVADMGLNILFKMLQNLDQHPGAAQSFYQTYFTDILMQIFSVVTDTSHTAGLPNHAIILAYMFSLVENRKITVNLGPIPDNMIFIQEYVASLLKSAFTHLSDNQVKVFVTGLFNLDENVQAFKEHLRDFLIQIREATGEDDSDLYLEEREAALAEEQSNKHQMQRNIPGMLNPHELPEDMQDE
Method: Drosophila embryos were fixed and stained as described (Yu, X. et al. Nature Cell Biol 3, 144-151 (1999)). For drug treatments, 0-6 hours old embryos were permeabilised in octane (Lantz, V. A. et al. Mech Dev 85, 111-122 (1999)) and subsequently incubated for 60 min. with 80 ng/ml LMB. Controls were octane-permeabilised and incubated in solvent alone (<1% ethanol).
The following antibodies were used: rabbit anti-E-APC (1:10′000) (Yu, X. et al. Nature Cell Biol 3, 144-151 (1999), rabbit anti-APC (1:700) (Näthke, I. S. et al. J Cell Biol 134, 165-179 (1996)), mouse anti-lamin (1:150), mouse anti-β-catenin (1:500; Transduction Laboratories), Alexa Red and Green (1:500; Molecular Probes). images were collected on an MRC 1024 confocal microscope.

[3] = system: nuclear β-catenin in SW480 cells; experiment: Complementation assay in transfected SW480 cells, immunofluorescence of APC construct and β-catenin; type: cell-based
Text: All constructs were inserted into pEGFP-C2 (Clontech), producing N-terminally tagged GFP fusions. Each construct (except HC and HCala, see below) also contains a triple hemagglutinin (HA) tag inserted between GFP and APC coding sequence. In coreNES, the following NES-encoding sequences were inserted between the HA tag and the ARDcore (first of a pair human, second Drosophila, bold NES residues were substituted to alanine in coreNESala; in coreNEScon, underlined conserved non-NES residues were substituted by alanine): 203, […], […]; 20R4, […], […]; 20R7, […]. coreNESmin from Drosophila 20R4 contains ISGLSHLTVGSA (bold residues substituted by alanine in the mutant version). We also fused the putative NES from Drosophila pseudoR20 (FIG. 1, arrowhead) to ARDcore, but this NES candidate ([…]) was non-functional. For the complementation assays in SW480 cells, a central fragment from human APC (codons 1379-2080) was N-terminally tagged with GFP (HC, see above). The above described alanine substitutions of 20R-linked NESs were introduced into HC, and into GFP-E-APC, using the Quik-Change Site-Directed Mutagenesis Kit (Stratagene), HCala1 and HCala2 are partial mutants retaining one and two NESs, respectively (see text) All constructs were verified by sequencing.
Monkey COS cells were grown in DMEM medium (supplemented with 10% fetal calf serum), and transfected with FuGENE™ (Morin, P. J. et al. Science 275, 1787-1790 (1997)) Transfection Reagent (Roche). SW480 and HCT116 cells were grown in Leibovitz's L15 medium (with 10% fetal calf serum), and transfected with Lipofectamine (Life Technologies Inc.). 0.4 or […] DNA was used per transfection of COS or SW480 cells (in 35 mm culture wells), respectively. Transfected cells were harvested for analysis after 24-48 hours. […]
as §1

[4] = system: nuclear β-catenin; experiment: TOPFLASH/FOPFLASH luciferase transcriptional read-out of nuclear β-catenin in SW480 cells; type: cell-based; conditions: TOPFLASH, versus mock-transfected
Method: pTOPFLASH and pFOPFLASH were used for transcriptional read-out assays of nuclear β-catenin in SW480 cells (Korinek, V. et al. Science 275, 1784-1787 (1997)). pRL-CMV served as an internal control, and luciferase assays were performed with the Dual Luciferase™ Reporter Assay System (Promega). Relative luciferase activities (x100) were obtained by dividing TOP- or FOP-FLASH values by pRL-CMV values (FIG. 3). TOP-FLASH values reflect averages of 2-4 independent transfections, their standard deviations are given.

[5] = HC-transfected SW480 cells, LMB 2 hours

Molecule	effect on nuclear exclusion / distribution of Cterm1 and Cterm2 ([1]; LMB 50 ng/ml 1-2 hours)	effect on nuclear exclusion of coreNES fusions ([1]; LMB 50 ng/ml 1-2 hours)	effect on subcellular distribution of ARDcore and coreNESala mutants ([1]; LMB 50 ng/ml 1-2 hours)	effect on distribution of full-length E-APC ([1]; LMB treatment (not shown))	effect on localisation of endogenous E-APC [2]	effect on localisation of HC [3, 5]	effect on reduction of nuclear β-catenin by HC [3, 5]	reduction of luciferase activity (transcriptional activity of nuclear β-catenin) [4]	reduction of nuclear β-catenin by transfected construct ([3]; transfected SW480 cells, immunofluorescence)
CCC(=C/[C@H](C)C/C=C/C(C)=C/[C@@H](C)C(=O)[C@@H](C)[C@H](O)[C@@H](C)C/C(C)=C/C(=O)O)/C=C/[C@@H]1OC(=O)C=C[C@@H]1C [LMB, leptomycin B]	blocked; also recorded: even distribution of Cterm1 and 2 throughout cytoplasm and nucleus	abolishes the nuclear exclusion of all coreNES fusions	neither affected	accumulated to some extent in the nucleus	E-APC was found to accumulate in the nuclei; also recorded: endogenous E-APC is retained efficiently in nuclei	caused nuclear retention of HC	attenuated the reduction of nuclear β-catenin by HC		
B1								much reduced	strongly reduced nuclear β-catenin
